Experimental data as given in patent publication US5624902A, “Peptide inhibitors of calmodulin” (Torrey Pines Institute for Molecular Studies, priority 1995, dated 1997).
Square brackets hold non-standard residues; d marks the D form. Peptide text beside a SMILES is read from it.

Molecular target: calmodulin (Homo sapiens, UniProt P0DP23)
Assay: calcium-dependent phosphodiesterase assay (inhibition of calmodulin activity)
Type: biochemical
Settings: for inhibition at 50 µM: inhibition of calmodulin activation of phosphodiesterase at 50 μM peptide, PDE without calmodulin = 100%, Calmo = 0%; for IC50: concentration inhibiting 50% of calmodulin activity, assayed at 75 μM, 50 μM and 12.5 μM
Method: In this assay, calmodulin can be assayed by its ability to stimulate phosphodiesterase activity as determined by a two-step assay procedure illustrated by reactions (1) and (2).
During the first step of the assay cyclic adenosine 3'5'-monophosphate (cAMP) is incubated with calcium-activated phosphodiesterase (Cal-PDE), which hydrolyses the 3' bond producing adenosine 5'-monophosphate (5'-AMP). During the second step 5'-AMP is quantitatively converted into adenosine and inorganic phosphate (Pi) through the action of a 5'-nucleotidase. […] The amount of Pi formed is directly related to the phosphodiesterase activity which depends on the level of activation by calmodulin.
To sample assay tubes were added the following components: assay buffer, 25 μl; CaCl2, 5 μl; 5'-nucleotidase, 7.5 μl (stock solution is 10 units/ml); calmodulin 5 units; calmodulin inhibitor peptides to obtain the desired final concentration of 50 μM. The volume was then made up to 200 μl with water. Control blanks were prepared replacing the peptides with water. The added components were thoroughly mixed and the tubes incubated at 30° C. for 10 min. […] The samples were centrifuged to remove the protein precipitate and the 50 μl of the supernatant was withdrawn for phosphate measurement. […] The absorbance of the solution were read at 660 nm using water as a blank, identified as control "Calmo," as discussed in more detail below.
These three peptides commonly used in every assay as control of reproducibility of the assay.
In addition to the calcium-dependent phosphodiesterase assay data, IC50 values were determined for many of the peptides. The assay carried out for the determination in the IC50 values differed from the above screening assay by the concentration of the peptides being tested.
(2) W13: N-(4-aminobutyl)-5-chloro-2-naphtalenesulfonamide; (3) TFP: trifluoperazine; (4) Calmidasolium: (1-[bis-(4-chlorophenyl)methyl]-3[-2-(2,4-dichlorophenyl)-2[(2,4-dichlorophenyl)methoxy]-ethyl]-1H-imidazolium chloride. The IC50 values were calculated using sigmoidal curve software (Graphpad, ISI, San Diego) using the % inhibition at different mixture concentrations (see attached protocol for determination of % inhibition).

SMILES | inhibition at 50 µM | IC50
CC[C@@H](C)[C@@H](NC(=O)[C@@H](CCC(N)=O)NC(=O)[C@@H](CC(C)C)NC(C)=O)C(=O)N[C@H](Cc1c[nH]cn1)C(=O)N[C@H](CC(C)C)C(=O)N[C@H](CCCNC(=N)N)C(N)=O [Ac-(D)Leu-(D)Gln-(D)Ile-(D)His-(D)Leu-(D)Arg-NH2] (Ac-[dL][dQ][dI][dH][dL][dR]-NH2) | 28.9% | –
CC[C@@H](C)[C@@H](NC(=O)[C@@H](CCC(N)=O)NC(=O)[C@@H](CC(C)C)NC(C)=O)C(=O)N[C@H](Cc1c[nH]cn1)C(=O)N[C@H](CC(C)C)C(=O)N[C@H](Cc1c[nH]c2ccccc12)C(N)=O [Ac-(D)Leu-(D)Gln-(D)Ile-(D)His-(D)Leu-(D)Trp-NH2] (Ac-[dL][dQ][dI][dH][dL][dW]-NH2) | 46% | –
CC[C@@H](C)[C@@H](NC(=O)[C@@H](CCC(N)=O)NC(=O)[C@@H](CC(C)C)NC(C)=O)C(=O)N[C@@H](C(=O)N[C@H](Cc1c[nH]cn1)C(=O)N[C@H](CCCNC(=N)N)C(N)=O)[C@H](C)CC [Ac-(D)Leu-(D)Gln-(D)Ile-(D)Ile-(D)His-(D)Arg-NH2] (Ac-[dL][dQ][dI][dI][dH][dR]-NH2) | 43.4% | –
CC[C@@H](C)[C@@H](NC(=O)[C@@H](CCC(N)=O)NC(=O)[C@@H](CC(C)C)NC(C)=O)C(=O)N[C@@H](C(=O)N[C@H](Cc1c[nH]cn1)C(=O)N[C@H](Cc1c[nH]c2ccccc12)C(N)=O)[C@H](C)CC [Ac-(D)Leu-(D)Gln-(D)Ile-(D)Ile-(D)His-(D)Trp-NH2] (Ac-[dL][dQ][dI][dI][dH][dW]-NH2) | 35.5% | –
CC[C@@H](C)[C@@H](NC(=O)[C@@H](CCC(N)=O)NC(=O)[C@@H](CC(C)C)NC(C)=O)C(=O)N[C@@H](C(=O)N[C@H](CC(C)C)C(=O)N[C@H](CCCNC(=N)N)C(N)=O)[C@H](C)CC [Ac-(D)Leu-(D)Gln-(D)Ile-(D)Ile-(D)Leu-(D)Arg-NH2] (Ac-[dL][dQ][dI][dI][dL][dR]-NH2) | 15.8% | > 50 µM
CC[C@@H](C)[C@@H](NC(=O)[C@@H](CCC(N)=O)NC(=O)[C@@H](CC(C)C)NC(C)=O)C(=O)N[C@@H](C(=O)N[C@H](CC(C)C)C(=O)N[C@H](Cc1c[nH]c2ccccc12)C(N)=O)[C@H](C)CC [Ac-(D)Leu-(D)Gln-(D)Ile-(D)Ile-(D)Leu-(D)Trp-NH2] (Ac-[dL][dQ][dI][dI][dL][dW]-NH2) | 47.4% | > 50 µM
CC(=O)N[C@H](CC(C)C)C(=O)N[C@H](Cc1c[nH]c2ccccc12)C(=O)N[C@H](CCCNC(=N)N)C(=O)N[C@H](Cc1c[nH]cn1)C(=O)N[C@H](Cc1c[nH]cn1)C(=O)N[C@H](CCCNC(=N)N)C(N)=O [Ac-(D)Leu-(D)Trp-(D)Arg-(D)His-(D)His-(D)Arg-NH2] (Ac-[dL][dW][dR][dH][dH][dR]-NH2) | 57.9% | –
CC(=O)N[C@H](CC(C)C)C(=O)N[C@H](Cc1c[nH]c2ccccc12)C(=O)N[C@H](CCCNC(=N)N)C(=O)N[C@H](Cc1c[nH]cn1)C(=O)N[C@H](Cc1c[nH]cn1)C(=O)N[C@H](Cc1c[nH]c2ccccc12)C(N)=O [Ac-(D)Leu-(D)Trp-(D)Arg-(D)His-(D)His-(D)Trp-NH2] (Ac-[dL][dW][dR][dH][dH][dW]-NH2) | 36.8% | –
CC(=O)N[C@H](CC(C)C)C(=O)N[C@H](Cc1c[nH]c2ccccc12)C(=O)N[C@H](CCCNC(=N)N)C(=O)N[C@H](Cc1c[nH]cn1)C(=O)N[C@H](CC(C)C)C(=O)N[C@H](CCCNC(=N)N)C(N)=O [Ac-(D)Leu-(D)Trp-(D)Arg-(D)His-(D)Leu-(D)Arg--NH2] (Ac-[dL][dW][dR][dH][dL][dR]-NH2) | 39.5% | > 50 µM
CC(=O)N[C@H](CC(C)C)C(=O)N[C@H](Cc1c[nH]c2ccccc12)C(=O)N[C@H](CCCNC(=N)N)C(=O)N[C@H](Cc1c[nH]cn1)C(=O)N[C@H](CC(C)C)C(=O)N[C@H](Cc1c[nH]c2ccccc12)C(N)=O [Ac-(D)Leu-(D)Trp-(D)Arg-(D)His-(D)Leu-(D)Trp-NH2] (Ac-[dL][dW][dR][dH][dL][dW]-NH2) | 90.8% | ≤ 10 µM
CC[C@@H](C)[C@@H](NC(=O)[C@@H](CCCNC(=N)N)NC(=O)[C@@H](Cc1c[nH]c2ccccc12)NC(=O)[C@@H](CC(C)C)NC(C)=O)C(=O)N[C@H](Cc1c[nH]cn1)C(=O)N[C@H](CCCNC(=N)N)C(N)=O [Ac-(D)Leu-(D)Trp-(D)Arg-(D)Ile-(D)His-(D)Arg-NH2] (Ac-[dL][dW][dR][dI][dH][dR]-NH2) | 68.4% | 32 µM
CC[C@@H](C)[C@@H](NC(=O)[C@@H](CCCNC(=N)N)NC(=O)[C@@H](Cc1c[nH]c2ccccc12)NC(=O)[C@@H](CC(C)C)NC(C)=O)C(=O)N[C@H](Cc1c[nH]cn1)C(=O)N[C@H](Cc1c[nH]c2ccccc12)C(N)=O [Ac-(D)Leu-(D)Trp-(D)Arg-(D)Ile-(D)His-(D)Trp-NH2] (Ac-[dL][dW][dR][dI][dH][dW]-NH2) | 52.6% | –
CC[C@@H](C)[C@@H](NC(=O)[C@@H](CCCNC(=N)N)NC(=O)[C@@H](Cc1c[nH]c2ccccc12)NC(=O)[C@@H](CC(C)C)NC(C)=O)C(=O)N[C@H](CC(C)C)C(=O)N[C@H](CCCNC(=N)N)C(N)=O [Ac-(D)Leu-(D)Trp-(D)Arg-(D)Ile-(D)Leu-(D)Arg-NH2] (Ac-[dL][dW][dR][dI][dL][dR]-NH2) | 107% | 15 µM
CC[C@@H](C)[C@@H](NC(=O)[C@@H](CCCNC(=N)N)NC(=O)[C@@H](Cc1c[nH]c2ccccc12)NC(=O)[C@@H](CC(C)C)NC(C)=O)C(=O)N[C@H](CC(C)C)C(=O)N[C@H](Cc1c[nH]c2ccccc12)C(N)=O [Ac-(D)Leu-(D)Trp-(D)Arg-(D)Ile-(D)Leu-(D)Trp-NH2] (Ac-[dL][dW][dR][dI][dL][dW]-NH2) | 101% | 15 µM
CC[C@@H](C)[C@@H](NC(=O)[C@@H](Cc1c[nH]c2ccccc12)NC(=O)[C@@H](CC(C)C)NC(C)=O)C(=O)N[C@H](Cc1c[nH]cn1)C(=O)N[C@H](Cc1c[nH]cn1)C(=O)N[C@H](Cc1c[nH]c2ccccc12)C(N)=O [Ac-(D)Leu-(D)Trp-(D)Ile-(D)His-(D)His-(D)Trp-NH2] (Ac-[dL][dW][dI][dH][dH][dW]-NH2) | 103% | 24 µM
CC[C@@H](C)[C@@H](NC(=O)[C@@H](Cc1c[nH]c2ccccc12)NC(=O)[C@@H](CC(C)C)NC(C)=O)C(=O)N[C@H](Cc1c[nH]cn1)C(=O)N[C@H](CC(C)C)C(=O)N[C@H](CCCNC(=N)N)C(N)=O [Ac-(D)Leu-(D)Trp-(D)Ile-(D)His-(D)Leu-(D)-Arg-NH2] (Ac-[dL][dW][dI][dH][dL][dR]-NH2) | 103% | 12 µM
CC[C@@H](C)[C@@H](NC(=O)[C@@H](Cc1c[nH]c2ccccc12)NC(=O)[C@@H](CC(C)C)NC(C)=O)C(=O)N[C@H](Cc1c[nH]cn1)C(=O)N[C@H](CC(C)C)C(=O)N[C@H](Cc1c[nH]c2ccccc12)C(N)=O [Ac-(D)Leu-(D)Trp-(D)Ile-(D)His-(D)Leu-(D)Trp-NH2] (Ac-[dL][dW][dI][dH][dL][dW]-NH2) | 103% | –
CC[C@@H](C)[C@@H](NC(=O)[C@@H](Cc1c[nH]c2ccccc12)NC(=O)[C@@H](CC(C)C)NC(C)=O)C(=O)N[C@@H](C(=O)N[C@H](Cc1c[nH]cn1)C(=O)N[C@H](CCCNC(=N)N)C(N)=O)[C@H](C)CC [Ac-(D)Leu-(D)Trp-(D)Ile-(D)Ile-(D)His-(D)Arg-NH2] (Ac-[dL][dW][dI][dI][dH][dR]-NH2) | 89.5% | 43 µM
CC[C@@H](C)[C@@H](NC(=O)[C@@H](Cc1c[nH]c2ccccc12)NC(=O)[C@@H](CC(C)C)NC(C)=O)C(=O)N[C@@H](C(=O)N[C@H](Cc1c[nH]cn1)C(=O)N[C@H](Cc1c[nH]c2ccccc12)C(N)=O)[C@H](C)CC [Ac-(D)Leu-(D)Trp-(D)Ile-(D)Ile-(D)His-(D)Trp-NH2] (Ac-[dL][dW][dI][dI][dH][dW]-NH2) | 92.1% | ≤ 9 µM
CC[C@@H](C)[C@@H](NC(=O)[C@@H](Cc1c[nH]c2ccccc12)NC(=O)[C@@H](CC(C)C)NC(C)=O)C(=O)N[C@@H](C(=O)N[C@H](CC(C)C)C(=O)N[C@H](CCCNC(=N)N)C(N)=O)[C@H](C)CC [Ac-(D)Leu-(D)Trp-(D)Ile-(D)Ile-(D)Leu-(D)Arg-NH2] (Ac-[dL][dW][dI][dI][dL][dR]-NH2) | 85.5% | 10 µM
CC[C@@H](C)[C@@H](NC(=O)[C@@H](Cc1c[nH]c2ccccc12)NC(=O)[C@@H](CC(C)C)NC(C)=O)C(=O)N[C@@H](C(=O)N[C@H](CC(C)C)C(=O)N[C@H](Cc1c[nH]c2ccccc12)C(N)=O)[C@H](C)CC [Ac-(D)Leu-(D)Trp-(D)Ile-(D)Ile-(D)Leu-(D)Trp-NH2] (Ac-[dL][dW][dI][dI][dL][dW]-NH2) | 23.7% | > 50 µM
CSCC[C@@H](NC(=O)[C@@H](Cc1c[nH]cn1)NC(=O)[C@@H](Cc1ccccc1)NC(=O)[C@@H](Cc1ccccc1)NC(C)=O)C(=O)N[C@H](CCSC)C(=O)N1CCC[C@@H]1C(N)=O [Ctr 1, Ac-(D)Phe-(D)Phe-(D)His-(D)-Met-(D)Met-(D)Pro-NH2, reference compound] (Ac-[dF][dF][dH][dM][dM][dP]-NH2) | 36.8% | –
CSCC[C@@H](NC(=O)[C@@H](CCSC)NC(=O)[C@@H](Cc1ccccc1)NC(=O)[C@@H](Cc1c[nH]cn1)NC(=O)[C@@H](CC(=O)O)NC(C)=O)C(=O)N[C@H](C)C(N)=O [Ctr 2, Ac-(D)Asp-(D)His-(D)Phe-(D)Met-(D)Met-(D)-Ala-NH2, reference compound] (Ac-[dD][dH][dF][dM][dM][dA]-NH2) | 35.5% | –
CC[C@H](C)[C@H](NC(=O)[C@H](Cc1ccccc1)NC(C)=O)C(=O)N[C@H](C(=O)N[C@@H](Cc1c[nH]c2ccccc12)C(=O)N[C@@H](Cc1ccccc1)C(=O)N[C@@H](CCC(=O)O)C(N)=O)[C@@H](C)CC [Ctr 3, Ac-Phe-Ile-Ile-Trp-Phe-Glu-NH2, reference compound] (Ac-FIIWFE-NH2) | 107% | –
NCCCCNS(=O)(=O)c1ccc2c(Cl)cccc2c1 [Peptide W13, N-(4-aminobutyl)-5-chloro-2-naphtalenesulfonamide, reference compound] | – | < 75 µM
